From patent US20260062387A1, “SALT-INDUCIBLE KINASE INHIBITOR COMPOUND AND PHARMACEUTICAL COMPOSITION INCLUDING THE SAME” (MITSUBISHI TANABE PHARMA CORPORATION, priority 2023, published 2026)

What was measured:
Format in all cases: biochemical
[1] = target: GST-tagged SIK2 (Homo sapiens (Human), UniProt Q9H0K1); experiment: SIK2 inhibition test (ADP-Glo Max Assay); conditions: enzyme 3 nM, AMARA Peptide 200 μM, ATP 1 mM, 2 hours room temperature
Description: (§1) The compounds described in Examples above were used in the SIK1, SIK2, and SIK3 inhibition test.
(§2) The inhibitory activity of the compound for SIK1, SIK2, and SIK3 enzymes was assayed by measuring the amount of ADP, an enzyme reaction product, with ADP-Glo™ Max Assay (Promega). Enzymes, specifically, GST-tagged SIK1 (Carna Biosciences, Inc.), GST-tagged SIK2 (Carna Biosciences, Inc.), and GST-tagged SIK3 (SignalChem) were prepared in a reaction buffer (15 mM tris-hydrochloric acid buffer (pH 7.5), 0.001% Triton X-100, 0.01% BSA) so that the final concentration would be 20 nM, 3 nM, and 100 nM. Enzyme solutions were thus formed. In a reaction buffer, AMARA Peptide (SignalChem) as a substrate with a final concentration of 200 μM (SIK1, SIK2) or 100 μM (SIK3), ATP (Promega) with a final concentration of 1 mM, and magnesium chloride with a final concentration of 5 mM were prepared. Substrate solutions were thus formed. The enzyme solution, the substrate solution, and a DMSO solution of a concentration of the test compound were mixed together and reacted at room temperature for 2 hours. After the reaction, ADP-Glo™ Reagent (Promega) was added, and the reaction was performed at room temperature for 30 minutes. Subsequently, ADP-Glo™ Max Detection Reagent (Promega) was added, and the reaction was performed at room temperature for 30 minutes. The emission by the luciferase reaction was measured with PHERAstar FSX (BMG LABTECH).
(§3) The inhibitory ratio (%) was calculated by: % Inhibition={1−(intensity of sample−intensity of blank (no enzyme solution added))/(intensity of control (DMSO alone)−intensity of blank)}×100. The inhibitory concentration IC50 was calculated based on 16 data values obtained in the concentration response test.

[2] = target: GST-tagged SIK3 (Homo sapiens (Human), UniProt Q9Y2K2); experiment: SIK3 inhibition test (ADP-Glo Max Assay); conditions: enzyme 100 nM, AMARA Peptide 100 μM, ATP 1 mM, 2 hours room temperature
Sequence of GST-tagged SIK3 (Q9Y2K2 whole entry): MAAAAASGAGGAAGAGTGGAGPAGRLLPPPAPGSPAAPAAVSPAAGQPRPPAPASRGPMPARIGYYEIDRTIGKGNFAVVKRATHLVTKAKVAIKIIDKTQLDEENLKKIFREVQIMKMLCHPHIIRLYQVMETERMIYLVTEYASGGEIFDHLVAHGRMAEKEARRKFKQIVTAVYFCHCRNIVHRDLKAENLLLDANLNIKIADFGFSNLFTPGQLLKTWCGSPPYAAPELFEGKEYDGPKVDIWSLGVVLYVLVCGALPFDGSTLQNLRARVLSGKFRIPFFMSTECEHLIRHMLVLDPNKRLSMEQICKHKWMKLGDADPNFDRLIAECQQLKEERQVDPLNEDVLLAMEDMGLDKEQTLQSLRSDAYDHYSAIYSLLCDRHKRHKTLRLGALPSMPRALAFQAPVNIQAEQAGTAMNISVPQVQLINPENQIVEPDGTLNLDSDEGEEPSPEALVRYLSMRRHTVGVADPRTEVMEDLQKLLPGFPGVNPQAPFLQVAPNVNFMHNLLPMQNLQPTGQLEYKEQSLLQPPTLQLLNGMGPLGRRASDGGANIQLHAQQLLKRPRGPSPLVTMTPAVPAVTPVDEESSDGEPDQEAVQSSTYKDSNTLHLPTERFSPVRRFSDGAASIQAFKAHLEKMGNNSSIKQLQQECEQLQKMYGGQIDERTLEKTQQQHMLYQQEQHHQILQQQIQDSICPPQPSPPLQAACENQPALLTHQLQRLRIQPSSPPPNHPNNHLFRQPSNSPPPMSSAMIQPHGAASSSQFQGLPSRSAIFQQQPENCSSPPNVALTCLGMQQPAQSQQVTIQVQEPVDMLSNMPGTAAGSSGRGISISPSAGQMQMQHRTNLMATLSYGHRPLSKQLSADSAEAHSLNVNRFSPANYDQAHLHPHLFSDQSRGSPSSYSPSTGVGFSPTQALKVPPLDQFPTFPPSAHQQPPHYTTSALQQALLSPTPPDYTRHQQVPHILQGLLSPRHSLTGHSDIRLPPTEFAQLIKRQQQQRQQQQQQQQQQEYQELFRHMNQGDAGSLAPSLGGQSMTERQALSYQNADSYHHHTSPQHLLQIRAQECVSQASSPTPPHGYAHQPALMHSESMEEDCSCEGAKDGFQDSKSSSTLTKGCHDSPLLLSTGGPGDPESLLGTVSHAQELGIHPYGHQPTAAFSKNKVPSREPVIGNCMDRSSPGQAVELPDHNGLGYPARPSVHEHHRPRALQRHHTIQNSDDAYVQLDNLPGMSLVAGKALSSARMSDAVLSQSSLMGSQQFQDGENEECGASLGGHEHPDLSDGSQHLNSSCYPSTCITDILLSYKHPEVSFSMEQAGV
Description: as §1, §2, §3

[3] = target: GST-tagged SIK1 (Homo sapiens (Human), UniProt P57059); experiment: SIK1 inhibition test (ADP-Glo Max Assay); conditions: enzyme 20 nM, AMARA Peptide 200 μM, ATP 1 mM, 2 hours room temperature
Sequence of GST-tagged SIK1 (P57059 whole entry): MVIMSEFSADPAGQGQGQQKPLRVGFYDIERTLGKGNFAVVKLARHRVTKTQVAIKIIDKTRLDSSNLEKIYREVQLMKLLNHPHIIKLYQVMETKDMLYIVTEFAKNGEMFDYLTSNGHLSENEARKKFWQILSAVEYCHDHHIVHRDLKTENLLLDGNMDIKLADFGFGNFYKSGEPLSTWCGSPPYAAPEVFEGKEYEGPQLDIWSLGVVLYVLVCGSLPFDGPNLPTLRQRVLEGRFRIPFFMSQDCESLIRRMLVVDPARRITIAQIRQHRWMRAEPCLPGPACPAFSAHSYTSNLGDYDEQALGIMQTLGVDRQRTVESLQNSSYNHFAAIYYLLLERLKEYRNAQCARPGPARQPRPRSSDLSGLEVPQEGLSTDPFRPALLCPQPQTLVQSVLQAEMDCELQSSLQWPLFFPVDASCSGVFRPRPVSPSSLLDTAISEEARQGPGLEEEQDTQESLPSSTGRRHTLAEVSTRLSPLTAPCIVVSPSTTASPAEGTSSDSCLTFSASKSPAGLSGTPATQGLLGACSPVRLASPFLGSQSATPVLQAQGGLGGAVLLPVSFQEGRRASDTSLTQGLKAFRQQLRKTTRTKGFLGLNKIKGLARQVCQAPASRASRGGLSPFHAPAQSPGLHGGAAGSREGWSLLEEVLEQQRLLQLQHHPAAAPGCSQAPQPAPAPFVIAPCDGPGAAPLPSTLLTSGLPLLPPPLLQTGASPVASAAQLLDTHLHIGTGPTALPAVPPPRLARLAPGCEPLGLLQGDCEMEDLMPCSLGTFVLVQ
Description: as §1, §2, §3

Sequence of GST-tagged SIK2 (Q9H0K1 whole entry): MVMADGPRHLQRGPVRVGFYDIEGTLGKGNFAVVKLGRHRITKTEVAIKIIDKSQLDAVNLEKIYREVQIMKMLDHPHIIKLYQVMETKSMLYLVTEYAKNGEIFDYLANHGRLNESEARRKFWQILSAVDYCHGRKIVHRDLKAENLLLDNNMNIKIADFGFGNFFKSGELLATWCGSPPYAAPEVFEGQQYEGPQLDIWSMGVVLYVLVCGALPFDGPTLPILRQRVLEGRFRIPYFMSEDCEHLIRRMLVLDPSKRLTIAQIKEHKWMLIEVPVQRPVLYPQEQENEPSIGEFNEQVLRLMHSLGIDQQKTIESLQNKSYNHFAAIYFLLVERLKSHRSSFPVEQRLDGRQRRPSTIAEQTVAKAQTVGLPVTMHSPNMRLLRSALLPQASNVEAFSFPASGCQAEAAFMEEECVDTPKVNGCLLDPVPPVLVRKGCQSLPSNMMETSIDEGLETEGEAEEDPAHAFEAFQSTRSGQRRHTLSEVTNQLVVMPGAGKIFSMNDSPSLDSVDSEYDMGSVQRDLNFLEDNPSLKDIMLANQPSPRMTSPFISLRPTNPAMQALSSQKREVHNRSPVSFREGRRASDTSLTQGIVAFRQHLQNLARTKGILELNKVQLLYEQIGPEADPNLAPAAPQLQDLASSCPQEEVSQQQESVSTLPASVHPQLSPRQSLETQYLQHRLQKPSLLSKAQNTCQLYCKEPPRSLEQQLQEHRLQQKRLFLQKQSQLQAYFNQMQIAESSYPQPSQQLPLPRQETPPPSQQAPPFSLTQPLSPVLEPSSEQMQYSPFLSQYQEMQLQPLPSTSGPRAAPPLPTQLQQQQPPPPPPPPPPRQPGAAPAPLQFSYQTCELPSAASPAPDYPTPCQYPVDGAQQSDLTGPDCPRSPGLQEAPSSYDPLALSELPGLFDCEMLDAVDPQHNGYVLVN

| IC50 [1] [nM] | IC50 [2] [nM] | IC50 [3] [nM] | SMILES |
| --- | --- | --- | --- |
| 1.9 | 3.4 | 8.1 | COc1cc(-c2c3c(C#N)cc(-c4cnn(CC(C)C)c4)cc3nn2C)cc2c1C(=O)NC[C@@H]2C (single isomer, unassigned) [Example 169] |
| 1.7 | 4.3 | 8.5 | COc1cc(-c2c3c(C#N)cc(-c4cnn(CC5CC5)c4)cc3nn2C)cc2c1C(=O)NC[C@@H]2C (single isomer, unassigned) [Example 170] |
| 2.3 | 4.7 | 9.1 | COc1cc(-c2c3c(C#N)cc(-c4cnn(CCC(C)C)c4)cc3nn2C)cc2c1C(=O)NC[C@@H]2C (single isomer, unassigned) [Example 171] |
| 7.8 | 7 | 19.5 | COCCn1cc(-c2cc(C#N)c3c(-c4cc(OC(F)F)c5c(c4)[C@@H](C)CNC5=O)n(C)nc3c2)cn1 (single isomer, unassigned) [Example 172] |
| 2.1 | 3.5 | 7.5 | COCCn1cc(-c2cc(C#N)c3c(-c4cc(OC(F)F)c5c(c4)[C@@H](C)CNC5=O)n(C)nc3c2)cn1 (single isomer, unassigned) [Example 173] |
| 2.3 | 2.6 | 8.6 | CCn1cc(-c2cc(C#N)c3c(-c4cc(OC(F)F)c5c(c4)[C@@H](C)CNC5=O)n(C)nc3c2)cn1 (single isomer, unassigned) [Example 174] |
| 2.9 | 7.2 | 7.5 | COc1cc(-c2cnn(C[C@H](C)O)c2)cc2nn(C)c(-c3cc(OC(F)F)c4c(c3)[C@@H](C)CNC4=O)c12 (single isomer, unassigned) [Example 175] |
| 5.9 | 11.9 | 11 | COc1cc(-c2cnn(C[C@H](C)O)c2)cc2nn(C)c(-c3cc(OC(F)F)c4c(c3)[C@@H](C)CNC4=O)c12 (single isomer, unassigned) [Example 176] |
| 3.1 | 10.1 | 5.4 | COCCn1cc(-c2cc(OC)c3c(-c4cc(OC(F)F)c5c(c4)[C@@H](C)CNC5=O)n(C)nc3c2)cn1 (single isomer, unassigned) [Example 177] |
| 4.7 | 15.6 | 10.1 | COCCn1cc(-c2cc(OC)c3c(-c4cc(OC(F)F)c5c(c4)[C@@H](C)CNC5=O)n(C)nc3c2)cn1 (single isomer, unassigned) [Example 178] |
| 2 | 6.1 | 5.7 | CCn1cc(-c2cc(OC)c3c(-c4cc(OC(F)F)c5c(c4)[C@@H](C)CNC5=O)n(C)nc3c2)cn1 (single isomer, unassigned) [Example 179] |
| 5.1 | 12.4 | 13.2 | CCn1cc(-c2cc(OC)c3c(-c4cc(OC(F)F)c5c(c4)[C@@H](C)CNC5=O)n(C)nc3c2)cn1 (single isomer, unassigned) [Example 180] |
| 6.1 | 3.5 | 19.4 | C[C@H]1CNC(=O)c2c(OC(F)F)cc(-c3c4c(C#N)cc(-c5cnn(C)c5)cc4nn3C)cc21 (single isomer, unassigned) [Example 181] |
| 2.5 | 2 | 6.4 | C[C@H]1CNC(=O)c2c(OC(F)F)cc(-c3c4c(C#N)cc(-c5cnn(C)c5)cc4nn3C)cc21 (single isomer, unassigned) [Example 182] |
| 2.1 | 2.2 | 5.9 | COc1cc(-c2c3c(C#N)cc(-c4cnn(C)c4)cc3nn2C)cc(OC(F)F)c1C(=O)N[C@@H]1C[C@@H]1F [Example 1, 4-[4-cyano-2-methyl-6-(1-methylpyrazol-4-yl)indazol-3-yl]-2-(difluoromethoxy)-N-[(1R,2S)-2-fluorocyclopropyl]-6-methoxybenzamide] |
| 16.2 | 12.4 | 17.1 | COc1cc(-c2c3c(C#N)cc(-c4cnn(C)c4)cc3nn2C)cc(OC(F)F)c1C(=O)N1CC(O)(C(F)(F)F)C1 [Example 7, 3-[3-(difluoromethoxy)-4-[3-hydroxy-3-(trifluoromethyl)azetidin-1-carbonyl]-5-methoxyphenyl]-2-methyl-6-(1-methylpyrazol-4-yl)indazole-4-carbonitrile] |

Further lines, the compound ahead of its results:

| SMILES | IC50 [1] [nM] | IC50 [2] [nM] | IC50 [3] [nM] |
| --- | --- | --- | --- |
| COc1cc(-c2c3c(C#N)cc(-c4cnn(CCN5CC(F)(F)C5)c4)cc3nn2C)cc(OC(F)F)c1C(=O)NC[C@@H]1CC1(F)F (stereo in doubt) [Example 108, 4-[4-cyano-6-[1-[2-(3,3-difluoroazetidin-1-yl)ethyl]pyrazol-4-yl]-2-methylindazol-3-yl]-2-(difluoromethoxy)-6-methoxy-N-[[rel-(1R)-2,2-difluorocyclopropyl]methyl]benzamide] | 6.5 | 2.4 | 16.8 |
| COc1cc(-n2cnc3cc(-c4cnn(C)c4)ccc32)cc(OC)c1C(=O)NCC(F)F [Comparative Example 2, reference compound] | 86.4 | 39.7 | 1000 |
| COc1cc(-c2cnc3cc(-c4cnn(C)c4)ccn23)cc2c1C(=O)N(C1CC1)CC2 [Comparative Example 3, 2-cyclopropyl-8-methoxy-6-[7-(1-methylpyrazol-4-yl)imidazo[1,2-a]pyridin-3-yl]-3,4-dihydroisoquinolin-1-one, reference compound] | 22.7 | 6.5 | 398 |
| COc1cc(-c2cnn3cc(OCCN4CCOCC4)ccc23)cc2c1C(=O)N(CC(F)(F)F)CC2 [Comparative Example 6, 8-methoxy-6-[6-(2-morpholinoethoxy)pyrazolo[1,5-a]pyridin-3-yl]-2-(2,2,2-trifluoroethyl)-3,4-dihydroisoquinolin-1-one, reference compound] | 102 | 42 | 5220 |
| COc1cc(-c2c3ccc(OCCN4CCOCC4)cc3nn2C)cc(OC(F)F)c1C(=O)NC1CC1 [Comparative Example 7, N-cyclopropyl-2-(difluoromethoxy)-6-methoxy-4-(2-methyl-6-(2-morpholinoethoxy)-2H-indazol-3-yl)benzamide, reference compound] | 369 | 198 | 7600 |
| COc1cc(-c2c3ccc(N4CCN(C)CC4)cc3nn2C)cc2c1C(=O)N(CC(F)(F)F)CC2 [Comparative Example 8, 8-methoxy-6-(2-methyl-6-(4-methylpiperazin-1-yl)-2H-indazol-3-yl)-2-(2,2,2-trifluoroethyl)-3,4-dihydroisoquinolin-1(2H)-one, reference compound] | 683 | 887 | > 10000 |
| COc1cc(-c2c3c(OC)cc(-c4cnn(C)c4)cc3nn2C)cc(OC(F)F)c1C(=O)N[C@@H]1C[C@@H]1F [Example 2, 2-(difluoromethoxy)-N-[(1R,2S)-2-fluorocyclopropyl]-6-methoxy-4-[4-methoxy-2-methyl-6-(1-methylpyrazol-4-yl)indazol-3-yl]benzamide] | 8.3 | 7.8 | 19.8 |
| COc1cc(-c2c3c(C(F)F)cc(-c4cnn(C)c4)cc3nn2C)cc(OC(F)F)c1C(=O)N[C@@H]1C[C@@H]1F [Example 3, 2-(difluoromethoxy)-4-[4-(difluoromethyl)-2-methyl-6-(1-methylpyrazol-4-yl)indazol-3-yl]-N-[(1R,2S)-2-fluorocyclopropyl]-6-methoxybenzamide] | 4.5 | 2.3 | 7.6 |
| COc1cc(-c2c3c(OCCCO)cc(-c4cnn(C)c4)cc3nn2C)cc(OC(F)F)c1C(=O)N[C@@H]1C[C@@H]1F [Example 4, 2-(difluoromethoxy)-N-[(1R,2S)-2-fluorocyclopropyl]-4-[4-(3-hydroxypropoxy)-2-methyl-6-(1-methylpyrazol-4-yl)indazol-3-yl]-6-methoxybenzamide] | 8.9 | 11.5 | 5 |
| COc1cc(-c2c3c(OC(F)F)cc(-c4cnn(C)c4)cc3nn2C)cc(OC(F)F)c1C(=O)N[C@@H]1C[C@@H]1F [Example 5, 2-(difluoromethoxy)-4-[4-(difluoromethoxy)-2-methyl-6-(1-methylpyrazol-4-yl)indazol-3-yl]-N-[(1R,2S)-2-fluorocyclopropyl]-6-methoxybenzamide] | 5 | 7.6 | 10.8 |
| COc1cc(-c2c3c(OCc4ccccc4)cc(-c4cnn(C)c4)cc3nn2C)cc(OC(F)F)c1C(=O)N[C@@H]1C[C@@H]1F [Example 6, 2-(difluoromethoxy)-N-[(1R,2S)-2-fluorocyclopropyl]-6-methoxy-4-[2-methyl-6-(1-methylpyrazol-4-yl)-4-phenylmethoxyindazol-3-yl]benzamide] | 7.1 | 8.4 | 2.8 |
